The structures appear in SMILES notation.

One experiment deals with human RS virus A2 strain. As to the kind of experiment: In vitro test for anti-RS virus proliferation inhibitory activity (quantitative RT-PCR of RS virus RNA copy number in infected Vero cells). The experiment is classed as cell-based. The note with it: 72 h; Vero cells infected with human RS virus A2 strain, 3 days of incubation, RS virus N gene RNA copy number by quantitative RT-PCR; read-out: Anti-RS virus Activity. On the procedure: A mixture of Vero cells (3.4×10^5 cells/mL) and human RS virus A2 strain (1.7×10^4 TCID50/mL) (EMEM medium supplemented with 10% FCS) was added to a 96-well plate at 50 μL/well, and the 10% FCS-supplemented EMEM medium adjusted to the desired final concentration of the compounds to be tested was added at 50 μL/well, followed by incubating the plate at 37° C. in the presence of 5% CO2 at 37° C. After 3 days of incubation, the supernatant was removed, the cells were washed with PBS(−), and the cell lysis buffer supplied with the SingleShot (registered trademark) Cell Lysis Kit (Bio-Rad) was added dropwise at 50 μL/well to lysis the cells thereby providing the cell lysate.
Human RS virus RNA copy number in the cell lysate was determined by quantitative RT-PCR using iTaq Universal SYBR Green One-Step Kit (Bio-Rad). Specifically, primers targeting human RS virus N gene (Rameix-Welti et al, Nat Commun5: 5104, 2014. doi: 10.1038/ncomms6104) was used to prepare the reaction solution according to the instructions provided with the kit, and a 96-well PikoReal Real-Time PCR System (TCR0096, Thermo Fisher Scientific) was used to detect PCR reaction and signal assay.
The copy number was calculated by the relative method using the comparative Ct method using compound-free virus-infected cells as controls.
For the compound `O=C(N1CCC[C@H]1c1nc(CCCc2ccccc2)no1)C(F)(F)F` [1C′, 3-(3-phenylpropyl)-5-[(2S)-1-trifluoroacetylpyrrolidin-2-yl]-1,2,4-oxadiazole], the IC50 was below 10 µM. For the compound `CC(C)(C)OC(=O)N1CCC[C@H]1c1nc(CCCc2ccccc2)no1` [Compound 1-1, 3-(3-phenylpropyl)-5-[(2S)-1-tert-butoxycarbonylpyrrolidin-2-yl]-1,2,4-oxadiazole], the IC50 was above 50 µM. Same read-out and setting: the same measure for `CC(C)CS(=O)(=O)N1CCC[C@H]1c1nc(CCCc2ccccc2)no1` [Compound 1A, 3-(3-phenylpropyl)-5-[(2S)-1-isobutylsulfonylpyrrolidin-2-yl]-1,2,4-oxadiazole]: above 50 µM; for `O=S(=O)(C1CCCCC1)N1CCC[C@H]1c1nc(CCCc2ccccc2)no1` [Compound 1B, 3-(3-phenylpropyl)-5-[(2S)-1-cyclohexylsulfonylpyrrolidin-2-yl]-1,2,4-oxadiazole]: 10 to 50 µM; for `CS(=O)(=O)N1CCC[C@H]1c1nc(CCCc2ccccc2)no1` [Compound 1C, 3-(3-phenylpropyl)-5-[(2S)-1-methanesulfonylpyrrolidin-2-yl]-1,2,4-oxadiazole]: above 50 µM. Still for that read-out and setting: the same measure for `O=S(=O)(c1ccccc1)N1CCC[C@H]1c1nc(CCCc2ccccc2)no1` [Compound 1D, 3-(3-phenylpropyl)-5-[(2S)-1-benzenesulfonylpyrrolidin-2-yl]-1,2,4-oxadiazole]: 10 to 50 µM; for `O=S(=O)(Cc1ccccc1)N1CCC[C@H]1c1nc(CCCc2ccccc2)no1` [Compound 1E, 3-(3-phenylpropyl)-5-[(2S)-1-benzylsulfonylpyrrolidin-2-yl]-1,2,4-oxadiazole]: 10 to 50 µM.

For `CC(C)(C)OC(=O)N1CCCC[C@H]1c1nc(CCCc2ccccc2)no1` [Compound 2-1, 3-(3-phenylpropyl)-5-[(2S)-1-tert-butoxycarbonylpiperidin-2-yl]-1,2,4-oxadiazole], the IC50 lay in the range of 10 to 50 µM.

Still in this experiment, the particulars now being: 72 h; Vero cells infected with human RS virus A2 strain, 3 days of incubation, RS virus RNA copy number by quantitative RT-PCR; read-out: Anti-RS virus Activity.
Regarding `CC(C)(C)OC(=O)N1C[C@@H](CC2CCC2)C[C@H]1c1nc(CCCc2ccccc2)no1` (racemic) [Compound 6-1, 3-(3-phenylpropyl)-5-(1-tert-butoxycarbonyl-4-cyclobutylmethylpyrrolidin-2-yl)-1,2,4-oxadiazole], the IC50 is below 10 µM. Same read-out and setting: under `CC(C)(C)[S+]([O-])N1CCCC[C@H]1c1nc(CCCc2ccccc2)no1` (single isomer, unassigned) [2W′] stands 10 to 50 µM; under `CC(C)CS(=O)(=O)N1CC(c2ccccc2)C[C@H]1c1nc(CCCc2ccccc2)no1` (stereo in doubt) [Compound 7A, 3-(3-phenylpropyl)-5-[(2S,4S)-1-isobutylsulfonyl-4-phenylpyrrolidin-2-yl]-1,2,4-oxadiazole], below 10 µM.

Regarding `O=S(=O)(C1CCCCC1)N1CC(c2ccccc2)C[C@H]1c1nc(CCCc2ccccc2)no1` (stereo in doubt) [Compound 7B, 3-(3-Phenylpropyl)-5-[(2S,4S)-1-cyclohexylsulfonyl-4-phenylpyrrolidin-2-yl]-1,2,4-oxadiazole], the IC50 was below 10 µM. Same read-out and setting: under `CS(=O)(=O)N1CC(c2ccccc2)C[C@H]1c1nc(CCCc2ccccc2)no1` (stereo in doubt) [Compound 7C, 3-(3-phenylpropyl)-5-[(2S,4S)-1-methanesulfonyl-4-phenylpyrrolidin-2-yl]-1,2,4-oxadiazole] stands below 10 µM; under `O=S(=O)(c1ccccc1)N1CC(c2ccccc2)C[C@H]1c1nc(CCCc2ccccc2)no1` (stereo in doubt) [Compound 7D, 3-(3-phenylpropyl)-5-[(2S,4S)-1-benzenesulfonyl-4-phenylpyrrolidin-2-yl]-1,2,4-oxadiazole], below 10 µM; under `O=S(=O)(Cc1ccccc1)N1CC(c2ccccc2)C[C@H]1c1nc(CCCc2ccccc2)no1` (stereo in doubt) [Compound 7E, 3-(3-Phenylpropyl)-5-[(2S,4S)-1-benzylsulfonyl-4-phenylpyrrolidin-2-yl]-1,2,4-oxadiazole], above 50 µM. Same read-out and setting: the same measure for `[O-][S+](N1CCCC[C@H]1c1nc(CCCc2ccccc2)no1)C12CC3CC(CC(C3)C1)C2` (stereo partly drawn) [2AF′, 5-((2S)-1-((adamantan-1-yl)sulfinyl)piperidin-2-yl)-3-(3-phenylpropyl)-1,2,4-oxadiazole]: 10 to 50 µM. The same measure, in the same setting: under `O=C(N1CC2(CC2)C[C@H]1c1nc(CCCc2ccccc2)no1)C(F)(F)F` [5D′, 3-(3-Phenylpropyl)-5-{(6S)-5-trifluoroacetyl-5-azaspiro[2.4]hept-6-yl}-1,2,4-oxadiazole] stands below 10 µM; under `O=S(=O)(N1CCCCC1)n1nc([C@H]2N[C@@H]3CC[C@H]2C3)nc1CCc1ccncc1` [25AD′], 10 to 50 µM; under `O=C(NCc1ccccc1)N1CCC[C@H]1c1nc(CCCc2ccccc2)no1` [Compound 1F, (S)—N-Benzyl-2-(3-(3-phenylpropyl)-1,2,4-oxadiazol-5-yl) pyrrolidine-1-carboxamide], 10 to 50 µM. Consider `CC(C)NC(=O)N1CCC[C@H]1c1nc(CCCc2ccccc2)no1` [Compound 1G, (S)—N-isopropyl-2-(3-(3-phenylpropyl)-1,2,4-oxadiazol-5-yl)pyrrolidine-1-carboxamide], for which the IC50 is above 50 µM. Still for that read-out and setting: under `CC(C)(C)NC(=O)N1CCC[C@H]1c1nc(CCCc2ccccc2)no1` [Compound 1H, (S)—N-(tert-butyl)-2-(3-(3-phenylpropyl)-1,2,4-oxadiazol-5-yl) pyrrolidine-1-carboxamide] stands above 50 µM; under `CC(C)COC(=O)N1CCC[C@H]1c1nc(CCCc2ccccc2)no1` [Compound 1I, Isobutyl (S)-2-(3-(3-phenylpropyl)-1,2,4-oxadiazol-5-yl) pyrrolidine-1-carboxylate], below 10 µM; under `O=C(OCc1ccccc1)N1CCC[C@H]1c1nc(CCCc2ccccc2)no1` [Compound 1J, Benzyl (S)-2-(3-(3-phenylpropyl)-1,2,4-oxadiazol-5-yl) pyrrolidine-1-carboxylate], below 10 µM. On to `COC(=O)N1CCC[C@H]1c1nc(CCCc2ccccc2)no1` [Compound 1K, Methyl (S)-2-(3-(3-phenylpropyl)-1,2,4-oxadiazol-5-yl) pyrrolidine-1-carboxylate], for which the IC50 fell in the range of 10 to 50 µM. Same read-out and setting: under `CC(C)OC(=O)N1CCC[C@H]1c1nc(CCCc2ccccc2)no1` [Compound 1L, Isopropyl (S)-2-(3-(3-phenylpropyl)-1,2,4-oxadiazol-5-yl) pyrrolidine-1-carboxylate] stands 10 to 50 µM; under `O=C(Oc1ccccc1)N1CCC[C@H]1c1nc(CCCc2ccccc2)no1` [Compound 1M, Phenyl (S)-2-(3-(3-phenylpropyl)-1,2,4-oxadiazol-5-yl)pyrrolidine-1-carboxylate], 10 to 50 µM; under `CC(C)[C@@H]1CC[C@@H](C)C[C@H]1OC(=O)N1CCC[C@H]1c1nc(CCCc2ccccc2)no1` [Compound 1N, (−)-menthyl (S)-2-(3-(3-phenylpropyl)-1,2,4-oxadiazol-5-yl) pyrrolidine-1-carboxylate], 10 to 50 µM. Same read-out and setting: the same measure for `O=C(OC1CCCC1)N1CCC[C@H]1c1nc(CCCc2ccccc2)no1` [Compound 1O, Cyclopentyl (S)-2-(3-(3-phenylpropyl)-1,2,4-oxadiazol-5-yl) pyrrolidine-1-carboxylate]: 10 to 50 µM; for `O=C(Cc1ccccc1)N1CCC[C@H]1c1nc(CCCc2ccccc2)no1` [Compound 1P, (S)-2-Phenyl-1-(2-(3-(3-phenylpropyl)-1,2,4-oxadiazol-5-yl)pyrrolidin-1-yl) ethan-1-one]: below 10 µM. `CC(C)CC(=O)N1CCC[C@H]1c1nc(CCCc2ccccc2)no1` [Compound 1Q, (S)-3-Methyl-1-(2-(3-(3-phenylpropyl)-1,2,4-oxadiazol-5-yl)pyrrolidin-1-yl) butan-1-one]: the IC50 is below 10 µM. On to `CC(=O)N1CCC[C@H]1c1nc(CCCc2ccccc2)no1` [Compound 1R], for which the IC50 was in the range of 10 to 50 µM.

In the case of `O=C(c1ccccc1)N1CCC[C@H]1c1nc(CCCc2ccccc2)no1` [Compound 1S, (S)-Phenyl(2-(3-(3-phenylpropyl)-1,2,4-oxadiazol-5-yl)pyrrolidin-1-yl)methanone], the IC50 was below 10 µM.

On to `CC(C)CCN1CCC[C@H]1c1nc(CCCc2ccccc2)no1` [Compound 1T, (S)-5-(1-isopentylpyrrolidin-2-yl)-3-(3-phenylpropyl)-1,2,4-oxadiazole], for which the IC50 is below 10 µM.

For the compound `c1ccc(CCCc2noc([C@@H]3CCCN3CC3CCCCC3)n2)cc1` [Compound 1U, (S)-5-(1-(cyclohexylmethyl)pyrrolidin-2-yl)-3-(3-phenylpropyl)-1,2,4-oxadiazole], the IC50 is below 10 µM. Still for that read-out and setting: under `Fc1ccc(CN2CCC[C@H]2c2nc(CCCc3ccccc3)no2)cc1` [Compound 1V, (S)-5-(1-(4-fluorobenzyl)pyrrolidin-2-yl)-3-(3-phenylpropyl)-1,2,4-oxadiazole] stands below 10 µM.

(Values after patent US20240327392A1, “HETEROCYCLOALKYL-SUBSTITUTED POLYHETEROAZOLE DERIVATIVES AS MEDICAMENTS FOR TREATING AND/OR PREVENTING RS VIRUS INFECTIONS” (ALBIUS SCIENCES ALPHA PRIVATE LIMITED, priority 2021, published 2024).)
